Our source for the EC50 values is ChEMBL document CHEMBL1158968, “Novel cytotoxic principles of Formosan Ganoderma lucidum” (1991).

≈ marks a conversion by molar mass, not a printed value.

For one experiment, the system named is KB. In words: Cytotoxicity against human KB cells after 4 days. The format is functional. The note with it: 96 h, read-out: ED50 (the source's name).
Experiment [1] is described as follows: Cytotoxicity against human PLC/PRF/5 cells after 4 days. The experiment is classed as functional. The note with it: PLC-PRF-5, 96 h, read-out: ED50 (the source's name).

For the compound `C/C(=C\CC[C@@H](C)[C@H]1CC[C@@]2(C)C3=C(C(=O)C[C@]12C)[C@@]1(C)CC[C@H](O)C(C)(C)[C@@H]1CC3)CO` [2H-GANODERIC ALDEHYDE A], the EC50 in the experiment with KB stood at 8.27 µg/mL (≈ 18.1 µM); in experiment [1] it was 10.7 µg/mL (≈ 23.5 µM).
The like results for `C/C(C=O)=C\CC[C@@H](C)[C@H]1CC[C@@]2(C)C3=C(C(=O)C[C@]12C)[C@@]1(C)CC[C@H](O)C(C)(C)[C@@H]1CC3` [GANODERIC ALDEHYDE A] were, in that order, 1.25 µg/mL (≈ 2.75 µM) and 2.54 µg/mL (≈ 5.59 µM).
Regarding `CC(C)[C@@H](C)/C=C/[C@@H](C)[C@H]1CC[C@@H]2[C@]1(C)CC[C@H]1[C@]23C=C[C@]2(C[C@@H](O)CC[C@]12C)OO3` [ERGOSTEROL PEROXIDE], the EC50 was determined as 9.79 µg/mL (≈ 22.8 µM) in the experiment on KB and 11 µg/mL (≈ 25.6 µM) in experiment [1].
